According to patent publication US12145923B2, “Tetrahydroisoquinoline compound, preparation method therefor, pharmaceutical composition containing same, and use thereof” (SHANGHAI INSTITUTE OF MATERIA MEDICA, CHINESE ACADEMY OF …, priority 2018, dated 2024):
Like-named read-outs stand apart in the source and are kept apart here.

Columns and labels:
[1] = Cytotoxicity on RAW 264.7 cells (CCK-8 method); assay type: cell-based, mouse; details: mouse, RAW 264.7 cells; drug concentration required to cause median cytotoxicity, RAW 264.7
Experimental: (§1) Mouse RAW 264.7 cells were purchased from American Type Culture Collection (Manassas, VA, USA), and cultivated in DMEM culture medium (Hyclone, South Logan, UT, USA) containing 10% fetal bovine serum (Hyclone, South Logan, UT, USA). Cells were collected and counted before use, and inoculated in a 96-well plate (Corning, NY, USA) at 1×10^5/well. […] 20 μl of CCK-8 solution (Dojindo, Kumamoto, Japan) was added at 30 min before the end of the culture. After the cultivation was ended, the absorbance OD value was measured at 450 nm (reference 650 nm) on amicroplate reader (Molecular Devices, Sunnyvale, CA, USA). The toxicity of the compound on RAW 264.7 cells was calculated by dividing the OD value of the test sample by the OD value of the cell control well, which was labeled as the cell survival rate M %.

[2] = tested on: tumor necrosis factor-α secretion in RAW 264.7 cells; test: Inhibition of LPS-stimulated tumor necrosis factor-α secretion in RAW 264.7 cells (ELISA); assay type: cell-based, mouse; details: Mus musculus; for inhibition at 0.5 µM / inhibition at 5 µM / inhibition at 50 µM: RAW264.7, 4 h, read-out: Tumor necrosis factor-α inhibition rate/%
[3] = target: Human PDE4D catalytic domain (Homo sapiens (Human), UniProt Q08499); test: Scintillation Proximity Assay (SPA), inhibition of PDE4D catalytic domain activity; assay type: biochemical; details: for inhibition at 1 µM: read-out: PDE4D enzyme activity inhibition rate %
TNF-α secretion in PBMC = test: Inhibition of LPS-stimulated TNF-α secretion in PBMC (ELISA); assay type: cell-based; details: Homo sapiens; for inhibition at 10 µM / inhibition at 1 µM: read-out: Inhibition rate %
RAW 264.7 cells = test: Cytotoxicity on RAW 264.7 cells (CCK-8 method); assay type: cell-based, mouse
Experimental: as §1

Sequence of Human PDE4D catalytic domain (Q08499 386-715): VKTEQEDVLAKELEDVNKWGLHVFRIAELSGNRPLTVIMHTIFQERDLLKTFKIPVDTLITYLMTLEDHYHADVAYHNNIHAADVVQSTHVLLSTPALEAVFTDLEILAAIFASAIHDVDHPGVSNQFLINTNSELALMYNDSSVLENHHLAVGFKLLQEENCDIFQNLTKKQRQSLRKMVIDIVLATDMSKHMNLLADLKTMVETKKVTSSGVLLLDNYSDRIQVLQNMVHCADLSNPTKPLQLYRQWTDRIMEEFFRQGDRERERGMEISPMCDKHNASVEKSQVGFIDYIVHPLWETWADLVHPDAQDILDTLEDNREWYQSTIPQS

inhibition at 1 µM ([3]; Compound concentration: 1 μM) | IC50 ([3]; PDE4D, unit given as mM, read-out: IC50) | SMILES | CC50 at 4 h [1] | IC50 ([2]; RAW264.7, RAW 264.7) | inhibition at 10 µM (TNF-α secretion in PBMC; TNF-α secretion in PBMC, 10 μM) | Cell survival rate/% (RAW 264.7 cells; RAW 264.7, 0.5 μM) | Cell survival rate/% (RAW 264.7 cells; RAW 264.7, 5 μM) | Cell survival rate/% (RAW 264.7 cells; RAW 264.7, 50 μM) | inhibition at 0.5 µM ([2]; RAW 264.7, 0.5 μM) | inhibition at 5 µM ([2]; RAW 264.7, 5 μM) | inhibition at 50 µM ([2]; RAW 264.7, 50 μM) | inhibition at 1 µM (TNF-α secretion in PBMC; TNF-α secretion in PBMC, 1 μM) | IC50 (TNF-α secretion in PBMC; TNF-α secretion in PBMC, read-out: IC50) | inhibition at 1 µM [3] | inhibition at 1 µM (TNF-α secretion in PBMC; PBMC) | inhibition at 10 µM (TNF-α secretion in PBMC; PBMC) | inhibition at 0.5 µM [2] | inhibition at 5 µM [2] | inhibition at 50 µM [2]
– | – | CCOc1cc([C@@H](CS(C)(=O)=O)N2C(=O)c3cccc(NC(C)=O)c3C2=O)ccc1OC [Apremilast, reference compound] | > 10 µM | 4.2 µM | – | – | – | – | – | – | – | – | – | – | – | – | – | – | –
6.4% | – | COc1cc2c(cc1OC1CCCC1)C(CCc1c[nH]c3cc(C)ccc13)N(C=O)CC2 (centres unmarked) [Compound C3, 7-(cyclopentyloxy)-6-methoxy-1-(2-(6-methyl-1H-indol-3-yl)ethyl)-3,4-dihydroisoquinoline-2(1H)-formaldehyde] | – | – | 36.4% | 115.1% | 120.5% | 112.6% | -0.9% | 5.9% | 59.7% | – | – | – | – | – | – | – | –
82.6% | 0.0003 mM | COCC(=O)N1CCc2cc(OC)c(OC)cc2C1CCc1c[nH]c2ccccc12 (centres unmarked) [Compound B4, 1-(1-(2-(1H-indol-3-yl)ethyl)-6,7-dimethoxy-3,4-dihydroisoquinoline-2(1H)-yl)-2-methoxyethane-1-one] | – | – | 89.1% | 116.6% | 82.7% | 71.5% | -9.2% | -11% | 54.5% | 44.1% | 8.02 µM | – | – | – | – | – | –
– | – | COC(=O)CN1CCc2cc(OC)c(OC)cc2C1CCc1c[nH]c2ccccc12 (centres unmarked) [Compound B5, methyl-2-(1-(2-(1H-indol-3-yl)ethyl)-6,7-dimethoxy-3,4-dihydroisoquinoline-2(1H)-yl) acetate] | – | – | – | 86% | 88.2% | 103.8% | – | – | – | – | – | 39.1% | 21.7% | 55.2% | -2.1% | 20% | 47.9%
– | – | COc1cc2c(cc1OC)[C@H](CCc1c[nH]c3cc(F)ccc13)N(C=O)CC2 [(S)-C6, (S)-1-(2-(6-fluoro-1H-indol-3-yl)ethyl)-6,7-dimethoxy-3,4-dihydroisoquinoline-2(1H)-formaldehyde] | > 50 µM | – | – | 108.6% | 118.4% | 93.7% | – | – | – | – | – | – | – | – | – | – | –
16.4% | – | COc1cc2c(cc1OC)C(CCc1c[nH]c3ccccc13)N(C(=O)C1CCOCC1)CC2 (centres unmarked) [Compound B3, (1-(2-(1H-indol-3-yl)ethyl)-6,7-dimethoxy-3,4-dihydroisoquinoline-2(1H)-yl)(tetrahydro-2H-pyran-4-yl)ketone] | – | – | 60.2% | 97.7% | 113.9% | 79.6% | 4.4% | 10.8% | 62.5% | 33.3% | – | – | – | – | – | – | –
19.5% | – | COc1cc2c(cc1OC)C(CCc1c[nH]c3ccccc13)N(CC(F)(F)F)CC2 (centres unmarked) [Compound B6, 1-(2-(1H-indol-3-yl)ethyl)-6,7-dimethoxy-2-(2,2,2-trifluoroethyl)-1,2,3,4-tetrahydroisoquinoline] | – | – | -23.2% | 117.3% | 87% | 95.3% | 8.2% | -7.1% | 67.5% | – | – | – | – | – | – | – | –

SMILES | inhibition at 1 µM ([3]; Compound concentration: 1 μM) | IC50 ([3]; PDE4D, unit given as mM, read-out: IC50) | CC50 at 4 h [1] | IC50 ([2]; RAW264.7, RAW 264.7) | inhibition at 10 µM (TNF-α secretion in PBMC; TNF-α secretion in PBMC, 10 μM) | Cell survival rate/% (RAW 264.7 cells; RAW 264.7, 0.5 μM) | Cell survival rate/% (RAW 264.7 cells; RAW 264.7, 5 μM) | Cell survival rate/% (RAW 264.7 cells; RAW 264.7, 50 μM) | inhibition at 0.5 µM ([2]; RAW 264.7, 0.5 μM) | inhibition at 5 µM ([2]; RAW 264.7, 5 μM) | inhibition at 50 µM ([2]; RAW 264.7, 50 μM) | inhibition at 1 µM (TNF-α secretion in PBMC; TNF-α secretion in PBMC, 1 μM) | IC50 (TNF-α secretion in PBMC; TNF-α secretion in PBMC, read-out: IC50) | inhibition at 1 µM [3] | inhibition at 1 µM (TNF-α secretion in PBMC; PBMC) | inhibition at 10 µM (TNF-α secretion in PBMC; PBMC) | inhibition at 0.5 µM [2] | inhibition at 5 µM [2] | inhibition at 50 µM [2]
COc1cc2c(cc1OC)C(CCc1c[nH]c3ccccc13)N(CC1CCOCC1)CC2 (centres unmarked) [Compound B7, 1-(2-(1H-indol-3-yl)ethyl)-6,7-dimethoxy-2-((tetrahydro-2H-pyran-4-yl)methyl)-1,2,3,4-tetrahydroisoquinoline] | 6.7% | – | – | – | 36.6% | 98.1% | 114.1% | 122.6% | 4.3% | 2.3% | 82.2% | – | – | – | – | – | – | – | –
